Experimental findings from patent publication US20190134129A1, “METHOD FOR ALLEVIATING ULTRAVIOLET DAMAGE WITH ETHYL ACETATE-EXTRACTED PRODUCT OF SEDUM FORMOSANUM” (Sinotai Oncology Associate., Ltd., priority 2017, published 2019) are described below.

SMILES strings stand for the structures.

The test deals with HaCaT cells. Kind of test: Apoptosis assay (FITC Annexin V/PI) of UV- or X-ray-irradiated HaCaT cells. Type of test: cell-based, human. The following applies: UV 50 mJ/cm^2, 48 hours. From the text: A. Test Sample Pretreatment and Irradiation Treatment

Regarding `O=c1c(O[C@@H]2O[C@H](CO)[C@@H](O)[C@H](O)[C@H]2O)c(-c2ccc(O)cc2)oc2cc(O)cc(O)c12` [astragalin], the “Apoptosis percentage (%)” value reads like this: (125 μg/mL pretreatment) 22.37 ± 3.32%; (250 μg/mL pretreatment) 69.07 ± 5.07%.
Take `O=c1cc(-c2ccc(O)cc2)oc2c([C@@H]3O[C@H](CO)[C@@H](O)[C@H](O)[C@H]3O)c(O)cc(O)c12` [vitexin]: the “Apoptosis percentage (%)” value reads like this: (125 μg/mL pretreatment) 20.00 ± 0.73%; (250 μg/mL pretreatment) 70.93 ± 1.52%.
